For test [1], the system named is T cell receptor repertoire. Description: RNA-based T cell receptor repertoire sequencing of ALS patient PBMC pre- and post-etanercept therapy.
Test [2] deals with peripheral blood mononuclear cells from ALS patient. Briefly: Autonomous cytokine secretion of ALS patient PBMC before and during etanercept therapy. Format: in vivo, human. The settings on record: etanercept 50 mg per week s.c., PBMC incubated 24 hr without stimulation, similar on three values over three months. How it is done:
We have observed that ALS patients can manifest autonomous inflammatory cytokine secretion when incubation of T cell- and monocyte-containing inoculum occurs for 24 hours in X-Vivo 20 media supplemented only with 5% human serum (FIG. 3). FIG. 3 depicts ALS patient and normal control autonomous cytokine secretion. ALS patient (“ALS”) and normal control (“NC”) peripheral blood mononuclear cells were either not separated (FIG. 3, right panel; mixture of T cells and monocytes), or separated into CD14^+ monocyte cells (FIG. 3, left panel) or CD3^+ T cells (FIG. 3, middle panel). The cells were incubated for 24 hours in media without any stimulation additives. After 24 hours, the supernatant was harvested and tested for cytokine content; TNF-α content is shown, with result described as pg per ml per 1×10^6 cells per 24 hours. […]
We reasoned that detection of autonomous secretion of inflammatory cytokines will have potential clinical implications, for example, in the monitoring of ALS disease response to investigational therapy. Towards this aim, we evaluated cytokine secretion in an ALS patient prior to and then after experimental therapy with the anti-TNF-α soluble recombinant receptor, etancercept (Enbrel®); there have been no reports of clinical trials evaluating etanercept therapy of ALS. […]

The subject of the next test is PBMC. Briefly: CD40 ligand-driven cytokine secretion of PBMC (24 h culture, multiplex assay). Format: cell-based. The settings on record: X-Vivo 20 media with 5% human serum. From the text:
Given this possibility, we evaluated whether simple addition of the recombinant human (rhu) CD40L molecule might uncover autonomous inflammatory cytokine secretion in ALS patients. There are no reports in the literature to date pertaining to CD40L-stimulation of ALS patient PBMC. […] Therefore, the detection of the inflammatory subset of ALS can be expanded by inclusion of patients that secrete cytokines autonomously and those patients that secrete inflammatory cytokines after CD40L stimulation. Patient hypersensitivity to CD40 ligand is driven by an imbalance in the post-CD40 receptor signaling pathway, with increased TRAF6 contribution to the signaling cascade during neuro-inflammation; importantly, the TRAF2 and TRAF3 family members inhibit post-CD40 signaling. As such, given this information, our monitoring method will also include Western Blot analyses for the detection of ALS patient balance of the TRAF family of proteins.
In FIG. 6, a sibling of a subject who was a carrier for the C9orf72 mutation was evaluated for autonomous cytokine secretion. […] This illustrates the importance of both neurologic and immunologic risk factors. […]

Where [3] appears, read: individual clones, post- versus pre-etanercept.

This is an account of results in patent US20210270843A1, “Immune Monitoring of Neuro-Inflammatory Amyotrophic Lateral Sclerosis (ALS)” (RAPA THERAPEUTICS, LLC, priority 2018, published 2021).

Where “and” joins values, the source holds several entries; their conditions need not be identical. Equal entries are not always repeated.

With etanercept, the “TCR clonality, Diversity Index (CHAOE) after therapy” value in test [1] (ALS patient post-therapy, pre-therapy sample approximately 650,000, normal controls ~300,000) was “approximately 599,000”. In addition, the “reduction in TCR clonality in post-therapy sample” value in test [1] (ALS patient, post- versus pre-therapy) was about 10%. Further, in test [1] (setting [3]), the “T cell clonal contraction” value was “more than 4 log and ~4 log”; the “T cell clonal expansion” value was “more than 4 log and ~4 log”. In addition, in test [1] (several clones, pre-etanercept frequencies 259 to 598), the “post-treatment frequency of contracted T cell clones” value came out at 0.01. In test [2], the “autonomous secretion of IL-6” value is “reduced” and the “autonomous secretion of TNF-α” value was “reduced”.

B1: rhu CD40L: recombinant human (rhu) CD40L molecule (protein, UniProt P29965 113-261, looked up)
CD40 ligand, soluble form: MQKGDQNPQIAAHVISEASSKTTSVLQWAEKGYYTMSNNLVTLENGKQLTVKRQGLYYIYAQVTFCSNREASSQAPFIASLCLKSPGRFERILLRAANTHSSAKPCGQQSIHLGGVFELQPGASVFVNVTDPSQVSHGTGFTSFGLLKL
Consider B1, for which, in the test on PBMC (PBMC from an ALS patient), the inflammatory cytokine production entry is “can induce inflammatory cytokine production”. Further, the “cytokine secretion after stimulation with CD40L” value in the test with PBMC (PBMC from sibling of a C9orf72 mutation carrier) is listed as “high levels of cytokine secretion”.
